Test results: ChEMBL document CHEMBL3875198, “Synthesis and biological properties of galactofuranosyl-containing fluorescent dyes” (Bioorg Med Chem Lett, 2017)
The source made the active and inactive calls. The rule behind the calls is not given here.

What was measured:
[1] = Cellular uptake in human macrophages infected with amastigote form of Leishmania donovani MHOM/SD/LEM3427 at 80 uM measured after 6 hrs by Hoechst-33342 staining based epifluorescence microscopy; format: ADME, cell-based; settings: macrophage
[2] = Drug uptake in human macrophage cytoplasm infected with amastigote form of Leishmania donovani MHOM/SD/LEM3427 at 80 uM measured after 6 to 18 hrs by Hoechst-33342 staining based epifluorescence microscopy; format: ADME
Leishmania donovani [3] = assay: Antileishmanial activity against amastigote form of Leishmania donovani MHOM/SD/LEM3427 infected in human macrophages assessed as phenotypic surface alterations by MGG-staining based analysis; format: functional
Leishmania donovani [4] = assay: Antileishmanial activity against amastigote form of Leishmania donovani MHOM/SD/LEM3427 infected in human macrophages assessed as reduction in macrophage infection at 80 uM measured after 48 hrs; format: functional
Leishmania donovani [5] = assay: Antileishmanial activity against amastigote form of Leishmania donovani MHOM/SD/LEM3427 infected in human macrophages assessed as reduction in amastigote multiplication at 80 uM measured after 48 hrs; format: functional

Drug uptake [1] | Drug uptake [2] | SMILES | Activity (Leishmania donovani [3]) | Activity (Leishmania donovani [4]) | Activity (Leishmania donovani [5])
Active | Active | CC/N=c1\cc2oc3cc(NCC)c(C)cc3c(-c3ccccc3C(=O)OCC)c-2cc1C.Cl [RHODAMINE 6G HYDROCHLORIDE] | Active |  | 
Active | Active | CC/N=c1/cc2oc3cc(NCC)c(C)cc3c(-c3ccccc3C(=O)NCCCCCCO[C@@H]3O[C@@H]([C@H](O)CO)[C@H](O)[C@H]3O)c-2cc1C.Cl |  | Active | Active
Active | Active | O=C(O)c1cc(NC(=S)NCCCCCCO[C@@H]2O[C@@H]([C@H](O)CO)[C@H](O)[C@H]2O)ccc1-c1c2ccc(=O)cc-2oc2cc(O)ccc12 |  |  | 
